Experiments:
[1] = Solubility of PS552-02 in NaCl solutions; format: physicochemical
Excerpt: (§1) A specific example of an application for the dual-nebulizer technology is illustrated in the following example in which the desired co-delivery of two therapeutic agents that act synergistically is not possible due to the incompatibility of these agents in a single formulation. […] However, due to the poor solubility of PS552-02 in NaCl solutions, these two agents cannot be formulated together. Currently, administration of PS552-02 and hypertonic saline would require two independent nebulizer treatments. However, a dual nebulizer system alleviates this issue by allowing both agents to be simultaneously delivered. Compound PS552-02 is represented by the formula: […]

[2] = test system: airway surface; assay: Airway surface hydration with PS552-02 and hypertonic saline; conditions: PS552-02 together with hypertonic saline (3-7%)
Excerpt: as §1

[3] = test system: airways; conditions: concurrent use of hypertonic saline and amiloride; cited from earlier work

Structure (SMILES) | solubility in NaCl solutions [1] | airway surface hydration [2] | effect on water permeability of airways [3]
N=C(NCCCCc1ccc(OCC(O)CO)cc1)NC(=O)c1nc(Cl)c(N)nc1N (stereo not drawn) [PS552-02] | poor | synergistically enhance | 
N=C(N)NC(=O)c1nc(Cl)c(N)nc1N [Amiloride, amiloride] |  |  | block the water permeability of airways

Source: US20100074881A1, “MULTIPLE NEBULIZER SYSTEMS” (PARION SCIENCES, Inc., priority 2008, published 2010)
